Results published in US20130184337A1, “SODIUM ASCORBATE STIMULATION OF ELASTOGENESIS” (THE HOSPITAL FOR SICK CHILDREN, priority 2012, published 2013).
Entries after “also recorded” stand apart in the source; their conditions may differ.

How the values were obtained:
[1] = tested on: normal dermal fibroblasts; assay: Elastic fiber deposition (immuno-staining morphometry, [3H]-valine insoluble elastin) in monolayer cultures; assay type: cell-based, human
Description: (§1) Cell Cultures—Fibroblasts initially grew out from the explants of these full thickness skin biopsies and were maintained. The primary cultures of fat-derived fibroblasts obtained from Thermogenesis (Rancho Cordova, Calif.) were also tested. In all described experiments, 2-4 passages of both kinds of fibroblasts were used. In experiments aimed at assessing ECM production, cells were initially plated at a concentration of 100,000 cells/dish.
(§2) Immuno-staining—All cultures maintained in the presence and absence of indicated reagents were either fixed in cold 100% methanol at −20° C. (for detection of elastin) or in 4% paraformaldehyde at room temperature (for detection of collagen I). The multiple parallel cultures were then incubated with 10 μg/ml of polyclonal antibody to tropoelastin (Elastin Products, Owensville, Mich.), or polyclonal antibody to collagen type I (Chemicon, Temecula, Calif.). Cultures were then incubated with the respective fluorescein-conjugated goat anti-rabbit, goat anti-mouse, or rabbit anti-goat secondary antibodies. Nuclei were counterstained with propidium iodide (Sigma, Sigma, St. Louis, Mo.). All of the cultures were then examined with a Nikon Eclipse E1000 microscope attached to a cooled CCD camera (QImaging, Retiga EX) and analyzed by the computer-generated morphometric analysis system (Image-Pro Plus software, Media Cybernetics, Silver Springs, Md.) as previously described.
Quantitative Assays of Insoluble Elastin—Fibroblasts were grown to confluency in 35-mm culture dishes (100,000 cells/dish). Next, 2 μCi of [3H]-valine/ml (Amersham Biosciences Ltd. Oakville, Canada), were added to each dish along with or without the indicated treatments. At the end of each experiment, the levels of metabolically labeled NaOH-insoluble elastin present in individual cultures were assayed and normalized per their DNA content.

[2] = tested on: normal dermal fibroblasts; assay: Collagen fiber deposition (immuno-staining of collagen type I, morphometry); assay type: cell-based, human; conditions: 100 μM, 24-hour-old cultures, 5% FBS
Description: as §1, with “cells/dish. Confluent cultures were then maintained either in serum-free medium (DMEM) or in medium supplemented with 5% FBS in the presence of different reagents that were added 1 hour before treatments with SA.” for “cells/dish.”
as §2

[3] = tested on: fat tissue-derived fibroblasts; assay: Elastin deposition (immuno-staining morphometry, insoluble elastin assay) in fat-derived fibroblasts; assay type: cell-based, human; conditions: 50-200 μM, on average, p<0.01
Description: Cell Cultures-Fibroblasts initially grew out from the explants of these full thickness skin biopsies and were maintained. The primary cultures of fat-derived fibroblasts obtained from Thermogenesis (Rancho Cordova, Calif.) were also tested. In all described experiments, 2-4 passages of both kinds of fibroblasts were used. In experiments aimed at assessing ECM production, cells were initially plated at a concentration of 100,000 cells/dish. […] Immuno-staining-All cultures maintained in the presence and absence of indicated reagents were either fixed in cold 100% methanol at -20° C. (for detection of elastin) or in 4% paraformaldehyde at room temperature (for detection of collagen I). The multiple parallel cultures were then incubated with 10 μg/ml of polyclonal antibody to tropoelastin (Elastin Products, Owensville, Mich.), or polyclonal antibody to collagen type I (Chemicon, Temecula, Calif.). […] All of the cultures were then examined with a Nikon Eclipse […] microscope attached to a cooled CCD camera (QImaging, Retiga EX) and analyzed by the computer-generated morphometric analysis system (Image-Pro Plus software, Media Cybernetics, Silver Springs, Md.) as previously described. Quantitative Assays of Insoluble Elastin-Fibroblasts were grown to confluency in 35-mm culture dishes (100,000 cells/dish). […]

[4] = tested on: intracellular tropoelastin; assay: Western blot of intracellular tropoelastin; assay type: cell-based, human; conditions: 50-200 μM, 20-hour-old cultures, 5% FBS
Description: Western Blots—At the end of indicated experiments, cells were lysed with NP-40 buffer containing a cocktail of broad spectrum inhibitors of proteinases and phosphatases. The 50 μg aliquots of protein extract were then resolved by SDS-PAGE gel (4-12% gradient) in reducing conditions and analyzed by Western blot with antibodies indicated in figure legends, as previously described. Initial blots were also re-probed with monoclonal anti-β-actin antibody (Cell Signaling Technology Inc., Danvers, Mass.) to confirm the equal protein loading. The degree of expression was measured by densitometry.

[5] = target: T1, IGF-1 receptor (Homo sapiens, UniProt P08069); assay: IGF-1R phosphorylation (immuno-precipitation, anti-phospho-tyrosine Western blot); assay type: cell-based; conditions: for levels of IGF-1R phosphorylation: 100 μM SA alone
T1 construct: immuno-precipitated with antibody to β subunit of IGF-1R and detected by Western blotting with anti-phospho-tyrosine antibody; endogenous in cells; host or cells: cultured dermal fibroblasts
Description: (§3) At the end of each experiment cells were submerged in the lysis buffer containing a broad-range phosphatase inhibitor. The polyclonal antibodies recognizing either the β subunits of the IGF-IR or the β subunit of the insulin receptor were immobilized on separate sets of the IgG-bearing magnetic beads (Invitrogen Canada Inc, Burlington, ON) and then incubated for 1 hour with the aliquots of the cell lysates containing 400 μg of protein as described in the manufacturer protocol. The beads bearing the resulting immuno-precipitation products were re-suspended in sample buffer and the released proteins were resolved with SDS-PAGE and subjected to Western blotting with a monoclonal anti-p-Tyr (PY99) antibody from Santa Cruz Biotechnology Inc. (Santa Cruz, Calif.) and then with HRP-conjugated goat anti-mouse secondary antibody.

[6] = tested on: insulin receptor; assay: Insulin receptor phosphorylation (immuno-precipitation, anti-phospho-tyrosine Western blot); assay type: cell-based, human; conditions: 100 μM SA, basic or insulin-induced
Description: as §3

[7] = tested on: explants of dermal stretch marks; assay: Organ culture of skin explants (Movat pentachrome morphometry, insoluble elastin); assay type: cell-based, human; conditions: 200 μM, 10-day-long daily treatment
Description: The parallel quadruplicate explants from each experimental group were additionally maintained in the presence 2 μCi of [3H]-valine/ml and then subjected to the assay of insoluble elastin. The parallel explants from each experimental groups were also evaluated after pentachrome Movat's staining which allows for clear marking of elastic fibers. In each experimental group, 50 sections derived from quadruplicate explants were analyzed.

T1 sequence (P08069 741-1367 limits assumed): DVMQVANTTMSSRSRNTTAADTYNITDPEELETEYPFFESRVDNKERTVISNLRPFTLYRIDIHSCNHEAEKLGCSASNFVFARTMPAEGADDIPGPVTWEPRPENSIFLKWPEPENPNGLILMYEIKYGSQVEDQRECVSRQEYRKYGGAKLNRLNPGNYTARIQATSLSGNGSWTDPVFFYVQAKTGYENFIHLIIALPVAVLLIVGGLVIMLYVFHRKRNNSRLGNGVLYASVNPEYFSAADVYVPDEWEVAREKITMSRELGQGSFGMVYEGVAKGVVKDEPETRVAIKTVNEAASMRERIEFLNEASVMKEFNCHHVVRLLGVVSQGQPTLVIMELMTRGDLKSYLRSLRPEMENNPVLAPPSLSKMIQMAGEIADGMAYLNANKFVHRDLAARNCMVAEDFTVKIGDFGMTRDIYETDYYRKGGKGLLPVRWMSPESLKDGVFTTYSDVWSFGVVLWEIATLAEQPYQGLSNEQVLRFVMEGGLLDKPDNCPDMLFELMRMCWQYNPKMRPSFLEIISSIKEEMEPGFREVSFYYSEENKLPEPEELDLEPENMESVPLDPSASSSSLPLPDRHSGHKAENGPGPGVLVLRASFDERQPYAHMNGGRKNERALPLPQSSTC
T1 sequence (P08069 31-736 partner limits assumed): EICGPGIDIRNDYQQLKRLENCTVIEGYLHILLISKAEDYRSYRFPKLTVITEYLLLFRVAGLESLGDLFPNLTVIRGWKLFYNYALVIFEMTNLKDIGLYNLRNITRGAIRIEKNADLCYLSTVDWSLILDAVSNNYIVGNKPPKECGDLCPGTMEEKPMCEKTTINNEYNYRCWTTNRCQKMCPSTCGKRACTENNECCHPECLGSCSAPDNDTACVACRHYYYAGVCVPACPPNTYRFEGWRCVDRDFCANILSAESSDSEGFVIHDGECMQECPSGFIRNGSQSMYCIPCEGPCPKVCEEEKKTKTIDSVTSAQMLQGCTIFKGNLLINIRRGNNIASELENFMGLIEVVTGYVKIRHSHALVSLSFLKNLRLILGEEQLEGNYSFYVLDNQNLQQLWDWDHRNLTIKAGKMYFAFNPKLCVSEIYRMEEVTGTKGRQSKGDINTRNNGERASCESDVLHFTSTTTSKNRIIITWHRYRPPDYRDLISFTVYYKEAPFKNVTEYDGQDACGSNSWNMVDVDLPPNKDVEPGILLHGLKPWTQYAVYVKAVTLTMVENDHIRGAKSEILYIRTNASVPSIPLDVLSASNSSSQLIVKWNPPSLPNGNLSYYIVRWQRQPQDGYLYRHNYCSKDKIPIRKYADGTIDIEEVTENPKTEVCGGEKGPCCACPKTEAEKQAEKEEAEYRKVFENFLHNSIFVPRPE

**Q.** O=C1O[C@H]([C@@H](O)CO)C([O-])=C1O.[Na+] [SA, (+)-sodium L-ascorbate] was tested. Which “production of immuno-detectable elastic fibers” value ([1]; 50 μM to 200 μM, 24-hour-old cultures, 5% FBS) did it give?
**A.** significantly stimulated production of immuno-detectable elastic fibers; also recorded: upregulate production of elastic fibers

**Q.** And the “elastin deposition, SA added to IGF-1” value ([1]; 100 μM SA added to 50 ng/ml IGF-1)?
**A.** significantly up-regulated the levels of elastin deposition

**Q.** And the “elastogenesis, SA added to dexamethasone” value ([1]; 100 μM SA added to 1 μM dexamethasone)?
**A.** did not further enhance the increase in elastogenesis

**Q.** And the “elastogenesis / net deposition of new elastic fibers” value ([1]; 100 μM alone, 24 hours, 5% FBS)?
**A.** remarkable up-regulation in the net deposition of new elastic fibers; also recorded: similarly strong elastogenic effects as treatment with 50 ng/ml of exogenous IGF-1; also recorded: upregulates elastogenesis only in cultures of dermal fibroblasts maintained in media containing 5% FBS

**Q.** And the “deposition of elastic fibers” value ([1]; 400 μM, 24-hour-old cultures, 5% FBS)?
**A.** did not further stimulate deposition of elastic fibers

**Q.** And the elastogenesis ([1]; 800 μM, 24-hour-old cultures, 5% FBS)?
**A.** clear inhibition of elastogenesis; also recorded: inhibits elastogenesis

**Q.** What about the “elastogenic effects in serum-free medium” value ([1]; SA, 18-24 hour-old cultures, serum-free medium) of the same compound?
**A.** could not be observed in cultures maintained in serum-free medium

**Q.** What about the “deposition of immuno-detected collagen fibers” value [2] of the same compound?
**A.** more potent up-regulation in the deposition of immuno-detected collagen fibers than 100 μM AA; also recorded: more potent upregulation in collagen fibers deposition than 100 μM AA

**Q.** And the “increase in elastin deposition” value [3]?
**A.** 22%+/−4%

**Q.** And the “levels of newly synthesized tropoelastin” value [4]?
**A.** increase in the levels of newly synthesized tropoelastin

**Q.** What about the “levels of IGF-1R phosphorylation” value ([5]; medium with FBS) of the same compound?
**A.** remarkably enhanced levels of IGF-1R phosphorylation; also recorded: enhances the level of phosphorylation of the IGF-1R

**Q.** What about the “levels of IGF-1R phosphorylation” value ([5]; serum-free medium) of the same compound?
**A.** did not reveal any increase in IGF-1R phosphorylation

**Q.** And the “levels of IGF-1-induced IGF-1R phosphorylation” value ([5]; 100 μM SA plus 50 ng/ml IGF-1, both tested media)?
**A.** significantly enhanced the levels of phosphorylated IGF-IR; also recorded: enhances levels of IGF-1-induced IGF-IR phosphorylation in both tested media

**Q.** What about the “phosphorylation of insulin receptor” value [6] of the same compound?
**A.** did not induce heightened phosphorylation; also recorded: does not enhance basic or insulin-induced phosphorylation of insulin receptor

**Q.** And the elastogenesis [7]?
**A.** restored the practically non-existent elastogenesis
